Experimental data taken from patent US20140274688A1, “MOLECULES HAVING CERTAIN PESTICIDAL UTILITIES, AND INTERMEDIATES, COMPOSITIONS, AND PROCESSES RELATED THERETO” (DOW AGROSCIENCES LLC, priority 2013, published 2014).

Legend:
[1] = test system: Beet Armyworm (Spodoptera exigua) ("BAW"); test: Bioassay on Beet Armyworm (BAW), 128-well diet tray assay, percent mortality; assay type: in vivo; details: for BAW rating (percent mortality class): Beet Armyworm, 128-well diet tray assay; for pest or weed control at 50 µg/cm2: Spodoptera exigua, read-out: BAW
Summary of the method: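 Larvae in covered diet trays held at 25 °C, 14:10 light-dark, for five to seven days. Percent mortality scored per well and averaged over eight wells per treatment.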

[2] = test system: Cabbage Looper (Trichoplusia ni) ("CL"); test: Bioassay on Cabbage Looper (CL), 128-well diet tray assay, percent mortality; assay type: in vivo; details: for CL rating (percent mortality class): Cabbage Looper, 128-well diet tray assay; for pest or weed control at 50 µg/cm2: Trichoplusia ni, read-out: CL
Summary of the method: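 Larvae held in covered diet trays at 25 °C, 14:10 light-dark, for five to seven days. Percent mortality scored per well and averaged over eight wells.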

SMILES	BAW rating (percent mortality class) [1]	CL rating (percent mortality class) [2]	pest or weed control at 50 µg/cm2 [1] [%]	pest or weed control at 50 µg/cm2 [2] [%]
CCc1ccc(C)cc1NC(=S)NC(=O)NC1CC1c1ccc(-c2ncn(-c3ccc(OC(F)(F)F)cc3)n2)cc1 (centres unmarked) [F27, N-(2-ethyl-5-methylphenyl)-N′-[2-(4-{1-[4-(trifluoromethoxy)phenyl]-1H-1,2,4-triazol-3-yl}phenyl)cyclopropyl]dicarbonimidothioic diamide]	A (50-100)	A (50-100)	–	–
CCc1cccc(C)c1N1C(=O)CS/C1=N\C(=O)NC1CC1c1ccc(-c2ncn(-c3ccc(OC(F)(F)F)cc3)n2)cc1 (centres unmarked) [F31, (Z)-1-(3-(2-ethyl-6-methylphenyl)-4-oxothiazolidin-2-ylidene)-3-(2-(4-(1-(4-(trifluoromethoxy)phenyl)-1H-1,2,4-triazol-3-yl)phenyl)cyclopropyl)urea]	A (50-100)	A (50-100)	–	–
CC(C)c1ccccc1N1C(=O)CS/C1=N\C(=O)NCc1ccc(-c2ncn(-c3ccc(C(F)(F)F)cc3)n2)cc1 [P14, (Z)-1-(3-(2-isopropylphenyl)-4-oxothiazolidin-2-ylidene)-3-(4-(1-(4-(trifluoromethyl)phenyl)-1H-1,2,4-triazol-3-yl)benzyl)urea]	–	–	50 to 100	50 to 100
COc1ccc(N2C(=O)CS/C2=N\C(=O)NCc2ccc(-c3ncn(-c4ccc(OC(F)(F)F)cc4)n3)cc2)c(C)c1 [P6, (Z)-1-(3-(4-methoxy-2-methylphenyl)-4-oxothiazolidin-2-ylidene)-3-(4-(1-(4-(trifluoromethoxy)phenyl)-1H-1,2,4-triazol-3-yl)benzyl)urea]	–	–	50 to 100	50 to 100
COc1ccc(NC(=S)NC(=O)NC2CC2c2ccc(-c3ncn(-c4ccc(OC(F)(F)F)cc4)n3)cc2)c(C)c1 (centres unmarked) [F26]	A (50-100)	A (50-100)	–	–
Cc1ccc(C(C)C)c(N2CCCS/C2=N\C(=O)NCCc2ccc(-c3ncn(-c4ccc(OC(F)(F)F)cc4)n3)cc2)c1 [P59, (Z)-1-(3-(2-isopropyl-5-methylphenyl)-1,3-thiazinan-2-ylidene)-3-(4-(1-(4-(trifluoromethoxy)phenyl)-1H-1,2,4-triazol-3-yl)phenethyl)urea]	–	–	50 to 100	50 to 100
Cc1ccc(C(C)C)c(NC(=S)NC(=O)NCc2ccc(-c3ncn(-c4ccc(OC(F)(F)C(F)(F)F)cc4)n3)cc2)c1 [F16, N-[5-methyl-2-(propan-2-yl)phenyl]-N′-(4-{1-[4-(pentafluoroethoxy)phenyl]-1H-1,2,4-triazol-3-yl}benzyl)dicarbonimidothioic diamide]	A (50-100)	A (50-100)	–	–
CC(C)c1ccccc1N1C(=O)CS/C1=N\C(=O)NCCCCc1cccc(-c2ncn(-c3ccc(OC(F)(F)F)cc3)n2)c1 [P172, (Z)-1-(3-(2-isopropylphenyl)-4-oxothiazolidin-2-ylidene)-3-(4-(3-(1-(4-(trifluoromethoxy)phenyl)-1H-1,2,4-triazol-3-yl)phenyl)butyl)urea]	–	–	50 to 100	50 to 100
CC(C)c1cc(F)ccc1N1C(=O)CS/C1=N\C(=O)NCCCc1ccc(-c2ncn(-c3ccc(OC(F)(F)F)cc3)n2)cc1 [P103, (Z)-1-(3-(4-fluoro-2-isopropylphenyl)-4-oxothiazolidin-2-ylidene)-3-(3-(4-(1-(4-(trifluoromethoxy)phenyl)-1H-1,2,4-triazol-3-yl)phenyl)propyl)urea]	–	–	50 to 100	50 to 100
CCCc1ccc(C)cc1N1C(=O)CS/C1=N\C(=O)NCCCCc1ccc(-c2ncn(-c3ccc(OC(F)(F)F)cc3)n2)cc1 [P151, (Z)-1-(3-(5-methyl-2-propylphenyl)-4-oxothiazolidin-2-ylidene)-3-(4-(4-(1-(4-(trifluoromethoxy)phenyl)-1H-1,2,4-triazol-3-yl)phenyl)butyl)urea]	–	–	50 to 100	50 to 100
Cc1ccccc1N1C(=O)CS/C1=N\C(=O)NCCCc1ccc(-c2ncn(-c3ccc(OC(F)(F)F)cc3)n2)cc1 [P92, (Z)-1-(4-oxo-3-(o-tolyl)thiazolidin-2-ylidene)-3-(3-(4-(1-(4-(trifluoromethoxy)phenyl)-1H-1,2,4-triazol-3-yl)phenyl)propyl)urea]	–	–	50 to 100	50 to 100
CCc1ccccc1N1C(=O)CS/C1=N\C(=O)NCCCc1cccc(-c2ncn(-c3ccc(OC(F)(F)F)cc3)n2)c1 [P119, (Z)-1-(3-(2-ethylphenyl)-4-oxothiazolidin-2-ylidene)-3-(3-(3-(1-(4-(trifluoromethoxy)phenyl)-1H-1,2,4-triazol-3-yl)phenyl)propyl)urea]	–	–	50 to 100	50 to 100
CC(C)c1ccccc1N1C(=O)CS/C1=N\C(=O)NCCCCc1ccc(-c2ncn(-c3ccc(OC(F)(F)F)cc3)n2)cc1 [P146, (Z)-1-(3-(2-isopropylphenyl)-4-oxothiazolidin-2-ylidene)-3-(4-(4-(1-(4-(trifluoromethoxy)phenyl)-1H-1,2,4-triazol-3-yl)phenyl)butyl)urea]	–	–	50 to 100	50 to 100
CCc1ccc(C)cc1N1C(=O)CS/C1=N\C(=O)NC1CC1c1ccc(-c2ncn(-c3ccc(OC(F)(F)F)cc3)n2)cc1 (centres unmarked) [F33, (Z)-1-(3-(2-ethyl-5-methylphenyl)-4-oxothiazolidin-2-ylidene)-3-(2-(4-(1-(4-(trifluoromethoxy)phenyl)-1H-1,2,4-triazol-3-yl)phenyl)cyclopropyl)urea]	A (50-100)	A (50-100)	–	–
Cc1cccc(C)c1N1C(=O)CS/C1=N\C(=O)NC1CC1c1ccc(-c2ncn(-c3ccc(OC(F)(F)F)cc3)n2)cc1 (centres unmarked) [F32, (Z)-1-(3-(2,6-dimethylphenyl)-4-oxothiazolidin-2-ylidene)-3-(2-(4-(1-(4-(trifluoromethoxy)phenyl)-1H-1,2,4-triazol-3-yl)phenyl)cyclopropyl)urea]	A (50-100)	A (50-100)	–	–
C/C(=C\NC(=O)/N=C1\SCC(=O)N1c1ccccc1C(C)C)c1ccc(-c2ncn(-c3ccc(OC(F)(F)F)cc3)n2)cc1 [F13]	A (50-100)	A (50-100)	–	–
CCCc1ccc(C)cc1N1C(=O)CS/C1=N\C(=O)NCCCc1cccc(-c2ncn(-c3ccc(OC(F)(F)F)cc3)n2)c1 [P125, (Z)-1-(3-(5-methyl-2-propylphenyl)-4-oxothiazolidin-2-ylidene)-3-(3-(3-(1-(4-(trifluoromethoxy)phenyl)-1H-1,2,4-triazol-3-yl)phenyl)propyl)urea]	–	–	50 to 100	50 to 100
CC(C)c1ccccc1N1C(=O)CS/C1=N\C(=O)N/C=C/c1ccc(-c2ncn(-c3ccc(OC(F)(F)F)cc3)n2)cc1 [F12]	A (50-100)	A (50-100)	–	–
CC(C)c1ccccc1N1C(=O)CS/C1=N\C(=O)NCCCc1ccc(-c2ncn(-c3ccc(OC(F)(F)F)cc3)n2)cc1 [P94, (Z)-1-(3-(2-isopropylphenyl)-4-oxothiazolidin-2-ylidene)-3-(3-(4-(1-(4-(trifluoromethoxy)phenyl)-1H-1,2,4-triazol-3-yl)phenyl)propyl)urea]	–	–	50 to 100	50 to 100
COc1ccc(C(C)C)c(N2C(=O)CS/C2=N\C(=O)NCCCCc2cccc(-c3ncn(-c4ccc(OC(F)(F)F)cc4)n3)c2)c1 [P182, (Z)-1-(3-(2-isopropyl-5-methoxyphenyl)-4-oxothiazolidin-2-ylidene)-3-(4-(3-(1-(4-(trifluoromethoxy)phenyl)-1H-1,2,4-triazol-3-yl)phenyl)butyl)urea]	–	–	50 to 100	50 to 100
CCCc1ccc(C)cc1N1C(=O)CS/C1=N\C(=O)NCCCc1ccc(-c2ncn(-c3ccc(OC(F)(F)F)cc3)n2)cc1 [P99, (Z)-1-(3-(5-methyl-2-propylphenyl)-4-oxothiazolidin-2-ylidene)-3-(3-(4-(1-(4-(trifluoromethoxy)phenyl)-1H-1,2,4-triazol-3-yl)phenyl)propyl)urea]	–	–	50 to 100	50 to 100
COc1ccc(C(C)C)c(N2C(=O)CS/C2=N\C(=O)NCCCCc2ccc(-c3ncn(-c4ccc(OC(F)(F)F)cc4)n3)cc2)c1 [P156, (Z)-1-(3-(2-isopropyl-5-methoxyphenyl)-4-oxothiazolidin-2-ylidene)-3-(4-(4-(1-(4-(trifluoromethoxy)phenyl)-1H-1,2,4-triazol-3-yl)phenyl)butyl)urea]	–	–	50 to 100	50 to 100
Cc1ccc(N2C(=O)CS/C2=N\C(=O)NCCc2cccc(-c3ncn(-c4ccc(OC(F)(F)F)cc4)n3)c2)c(C(C)C)c1 [P84, (Z)-1-(3-(2-isopropyl-4-methylphenyl)-4-oxothiazolidin-2-ylidene)-3-(3-(1-(4-(trifluoromethoxy)phenyl)-1H-1,2,4-triazol-3-yl)phenethyl)urea]	–	–	50 to 100	50 to 100
CCCc1ccccc1NC(=S)NC(=O)NC1CC1c1ccc(-c2ncn(-c3ccc(OC(F)(F)F)cc3)n2)cc1 (centres unmarked) [F23]	A (50-100)	A (50-100)	–	–
CCc1ccccc1N1C(=O)CS/C1=N\C(=O)NCCCc1ccc(-c2ncn(-c3ccc(OC(F)(F)F)cc3)n2)cc1 [P93, (Z)-1-(3-(2-ethylphenyl)-4-oxothiazolidin-2-ylidene)-3-(3-(4-(1-(4-(trifluoromethoxy)phenyl)-1H-1,2,4-triazol-3-yl)phenyl)propyl)urea]	–	–	50 to 100	50 to 100
